From patent US4021431A, “3-(Piperidino-lower-alkyl)-indoles” (Sterling Drug Inc., priority 1975, dated 1977)
Where a name gives a salt, the structure may show the parent alone.

System: adjuvant-induced arthritis
Test: inhibition of adjuvant-induced arthritis test (AA)
Settings: for AA: toxicity noted in place of % inhibition: oral, twelve daily medications
[1] = Rattus norvegicus, po, read-out: AA (% Inhib.)

Method: The inhibition of adjuvant-induced arthritis test used in the evaluation of the instant compounds is described briefly as follows: Adult male Sprague-Dawley strain rats weighing 200-230 grams were used; 0.1 ml. of a 0.6% suspension of adjuvant (M. Butyricum, Difco Laboratories, Detroit, Michigan) in heavy mineral oil was injected into the plantar tissue of the left hind paw. A negative control group was injected with mineral oil only. Symptoms of polyarthritis began to appear approximately ten days after adjuvant administration, and beginning on the ninth day after adjuvant injection, the animals were given, by gavage, twelve daily medications of the test compounds suspended in 1% gum tragacanth in a volume of 1 ml./100 g. of body weight. Both the negative control and adjuvant injected control animals received the vehicle only. Food and water are permitted ad libitum. Twenty-four hours after the last medication, the animals were weighed, the degree of arthritic involvement (that is the increase in foot edema measured plethysmographically as described above), and plasma inflammation units were determined. The results were expressed as percent inhibition calculated from the average differences in total foot volume of both hind paws between the adjuvant injected control and medicated rats, correcting for difference in foot volume of the oil injected negative control group.
Following foot volume measurements, the animals were anesthetized with ether and bled by heart puncture into rubber stoppered, evacuated glass tubes (calibrated to draw 2.7 ml.) containing 0.3 ml. of 0.1M sodium oxalate solution for determination of plasma inflammation units (P.I.U.). The unclotted blood was centrifuged, and 0.1 ml. of the plasma was diluted with 5.0 of 0.9% sodium chloride solution. The P.I.U.'s are direct spectrophotometer optical density readings expressed as the difference between preheated and heated plasma, corrected for 1:50 dilution. The results were expressed as percent inhibition calculated from the difference between the average plasma uncorrected for average plasma inflammation units of oil-injected negative control rats.
All data were obtained on oral administration.

## COc1ccc2c(c1)c(CCN1CCCCC1CC1CCCCC1)cn2C(=O)c1ccccc1 (centres unmarked) [Example 67]
[1]
  inhibition in vivo at 0.08 µM, 0.08 µmol/kg: 25%

## COc1ccc2c(c1)c(CCN1CCCCC1CC1CCCCC1)c(C)n2C(=O)c1cccs1 (centres unmarked) [Example 10]
[1]
  inhibition in vivo at 0.324 µM, 0.324 µmol/kg: 63%

## COc1ccc2c(c1)c(CCN1CCCCC1CC1CCCCC1)c(C)n2C(=O)C=Cc1ccccc1 (centres unmarked) [Example 8]
[1]
  inhibition in vivo at 0.08 µM, 0.08 µmol/kg: 30%

## Cc1c(CCN2CCCCC2CC2CCCCC2)c2ccccc2n1C(=O)c1ccccc1 (centres unmarked) [Example 48]
[1]
  inhibition in vivo at 0.08 µM, 0.08 µmol/kg: 33%

## COc1ccc2c(c1)c(CCN1CCCCC1CCC1CCCCC1)c(C)n2C(=O)c1ccc(F)cc1 (centres unmarked) [Example 65, 1-(4-fluorobenzoyl)-3-{2-[2-(2-cyclohexylethyl)piperidino]ethyl}-5-methoxy-2-methylindole hydrochloride]
[1]
  inhibition in vivo at 0.08 µM, 0.08 µmol/kg: 85%

## COc1ccc2c(c1)c(CCN1CCCCC1CC1CCCCC1)c(C)n2C(=O)c1ccc(Cl)cc1Cl (centres unmarked) [Example 4]
[1]
  inhibition in vivo at 0.02 µM, 0.02 µmol/kg: 28%
  inhibition in vivo at 0.324 µM, 0.324 µmol/kg: 80%

## COc1ccc2c(c1)c(CCN1CCC(CCC3CCCCC3)CC1)c(C)n2C(=O)c1ccccc1 [Example 89, 1-benzoyl-3-{2-[4-(2-cyclohexylethyl)piperidino]ethyl}-5-methoxy-2-methylindole hydrochloride]
[1]
  inhibition in vivo at 0.08 µM, 0.08 µmol/kg: 89%

## COc1ccc2c(c1)c(CCNC(C)(C)C)c(C)n2C(=O)c1ccc(F)cc1.Cl [Example 86, 1-(4-fluorobenzoyl)-3-[2-(N-t-butylamino)ethyl]-5-methoxy-2-methylindole hydrochloride]
[1]
  inhibition in vivo at 0.005 µM, 0.005 µmol/kg: 13%
  inhibition in vivo at 0.02 µM, 0.02 µmol/kg: 71%
0.08 μM/kg.
  AA: toxicity noted in place of % inhibition: Toxic

## COc1ccc2c(c1)c(CCN1CCCCC1CC1CCCCC1)c(C)n2C(=O)c1ccccc1 (centres unmarked) [Example 1, 1-Benzoyl-3-[2-(2-cyclohexylmethylpiperidino)ethyl]-5-methoxy-2-methylindole]
[1]
  inhibition in vivo at 0.1 µM, 0.1 µmol/kg: 79%

## COc1ccc2c(c1)c(CCN(Cc1ccccc1)C(C)(C)C)c(C)n2C(=O)c1ccccc1 [72 (N-Benzyl), 1-benzoyl-3-[2-(N-benzyl-N-t-butylamino)ethyl]-5-methoxy-2-methylindole hydrochloride]
[1]
  inhibition in vivo at 0.08 µM, 0.08 µmol/kg: 62%

## COc1ccc2c(c1)c(CCN1CCCCC1CC1CCCCC1)c(C)n2C(=O)c1ccc(C)cc1 (centres unmarked) [Example 2]
[1]
  inhibition in vivo at 0.08 µM, 0.08 µmol/kg: 37%

## COc1ccc2c(c1)c(CCN1CCCCC1CC1CCCCC1)c(C)n2C(=O)c1ccccc1Br (centres unmarked) [Example 7]
[1]
  inhibition in vivo at 0.08 µM, 0.08 µmol/kg: 29%

## COc1ccc2c(c1)c(CCN1CCCCC1CC1CCCCC1)c(C)n2C(=O)c1cccc(F)c1 (centres unmarked) [Example 12]
[1]
  inhibition in vivo at 0.08 µM, 0.08 µmol/kg: 17%

## COc1ccc2c(c1)c(CCN1CCCCC1CC1CCCCC1)c(C)n2C(=O)c1ccco1 (centres unmarked) [Example 11]
[1]
  inhibition in vivo at 0.324 µM, 0.324 µmol/kg: 50%

## COc1ccc2c(c1)c(CCN1CCC(CCC3CCCCC3)CC1)c(C)n2C(=O)c1ccc(F)cc1 [Example 88, 1-(4-fluorobenzoyl)-3-{2-[4-(2-cyclohexylethyl)piperidino]ethyl}-5-methoxy-2-methylindole hydrochloride]
[1]
  inhibition in vivo at 0.08 µM, 0.08 µmol/kg: 75%

## Cc1c(CCN2CCCCC2CC2CCCCC2)c2cc(F)ccc2n1C(=O)c1ccccc1 (centres unmarked) [Example 58]
[1]
  inhibition in vivo at 0.08 µM, 0.08 µmol/kg: 51%

## COc1ccc2c(c1)c(CCNC(C)(C)C)c(C)n2C(=O)c1ccccc1.Cl [72 (N-H), 1-benzoyl-3-[2-(N-t-butylamino)ethyl]-5-methoxy-2-methylindole hydrochloride]
0.16 μM/kg.
  AA: toxicity noted in place of % inhibition: Toxic

## Cc1c(CCN2CCCCC2CC2CCCCC2)c2cc(F)cc(F)c2n1C(=O)c1ccccc1 (centres unmarked) [Example 50]
[1]
  inhibition in vivo at 0.162 µM, 0.162 µmol/kg: 87%

## COc1ccc2c(c1)c(CCN(C(C)C)C(C)C)c(C)n2C(=O)c1ccccc1 [Example 73, 1-benzoyl-3-[2-(diisopropylamino)ethyl]-5-methoxy-2-methylindole hydrochloride]
[1]
  inhibition in vivo at 0.005 µM, 0.005 µmol/kg: 0%
  inhibition in vivo at 0.02 µM, 0.02 µmol/kg: 0%
  inhibition in vivo at 0.08 µM, 0.08 µmol/kg: 53%

## COc1ccc2c(c1)c(CCN1CCCCC1CC1CCCCC1)c(C)n2C(=O)c1ccc(Cl)cc1 (centres unmarked) [Example 84, 1-(4-chlorobenzoyl)-3-[2-(2-cyclohexylmethylpiperidino)ethyl]-5-methoxy-2-methylindole]
[1]
  inhibition in vivo at 0.01 µM, 0.01 µmol/kg: 36%
  inhibition in vivo at 0.04 µM, 0.04 µmol/kg: 70%
  inhibition in vivo at 0.16 µM, 0.16 µmol/kg: 100%

## COc1ccc2c(c1)c(CCN1CCCCC1C1CCCCC1)c(C)n2C(=O)c1ccc(F)cc1 (centres unmarked) [Example 63, 1-(4-fluorobenzoyl)-3-[2-(2-cyclohexylpiperidino)ethyl]-5-methoxy-2-methylindole hydrochloride]
[1]
  inhibition in vivo at 0.08 µM, 0.08 µmol/kg: 84%

## COc1ccc2c(c1)c(CCN1CCCCC1CC1CCCCC1)c(C)n2C(=O)c1ccc(Cl)c(Cl)c1 (centres unmarked) [Example 5]
[1]
  inhibition in vivo at 0.08 µM, 0.08 µmol/kg: 0%

## COc1ccc2c(c1)c(CCN(C(C)C)C(C)C)c(C)n2C(=O)c1ccc(F)cc1 [Example 87, 1-(4-fluorobenzoyl)-3-[2-(diisopropylamino)ethyl]-5-methoxy-2-methylindolehydrochloride]
[1]
  inhibition in vivo at 0.005 µM, 0.005 µmol/kg: 43%
  inhibition in vivo at 0.02 µM, 0.02 µmol/kg: 73%
  inhibition in vivo at 0.08 µM, 0.08 µmol/kg: 98%

## COc1ccc2c(c1)c(CCN1CCCCC1CCC1CCCCC1)c(C)n2C(=O)c1ccccc1 (centres unmarked) [Example 64, 1-benzoyl-3-{2-[2-(2-cyclohexylethyl)piperidino]ethyl}-5-methoxy-2-methylindole]
[1]
  inhibition in vivo at 0.01 µM, 0.01 µmol/kg: 36%
  inhibition in vivo at 0.04 µM, 0.04 µmol/kg: 70%
  inhibition in vivo at 0.16 µM, 0.16 µmol/kg: 100%

## COc1ccc2c(c1)c(CCN(Cc1ccccc1)C(C)(C)C)c(C)n2C(=O)c1ccc(F)cc1 [Example 85, 1-(4-fluorobenzoyl)-3-[2-(N-benzyl-N-t-butylamino)ethyl]-5-methoxy-2-methylindole hydrochloride]
[1]
  inhibition in vivo at 0.005 µM, 0.005 µmol/kg: 0%
  inhibition in vivo at 0.02 µM, 0.02 µmol/kg: 11%
  inhibition in vivo at 0.08 µM, 0.08 µmol/kg: 104%

## COc1ccc2c(c1)c(CCN1CCCCC1CC1CCCCC1)c(C)n2C(=O)c1ccc(F)cc1 (centres unmarked) [Example 6]
[1]
  inhibition in vivo at 0.02 µM, 0.02 µmol/kg: 66%
  inhibition in vivo at 0.08 µM, 0.08 µmol/kg: 84%

## COc1ccc(C(=O)n2c(C)c(CCN3CCCCC3CC3CCCCC3)c3cc(OC)ccc32)cc1 (centres unmarked) [Example 3]
[1]
  inhibition in vivo at 0.18 µM, 0.18 µmol/kg: 64%

## COc1ccc2c(c1)c(CCN1CCCCC1C1CCCCC1)c(C)n2C(=O)c1ccccc1 (centres unmarked) [Example 62, 1-benzoyl-3-[2-(2-cyclohexylpiperidino)ethyl]-5-methoxy-2-methylindole hydrochloride]
[1]
  inhibition in vivo at 0.324 µM, 0.324 µmol/kg: 107%

## COc1ccc2c(c1)c(CCN1CCC(C3CCCCC3)CC1)c(C)n2C(=O)c1ccc(F)cc1 [Example 90, 1-(4-fluorobenzoyl)-3-[2-(4-cyclohexylpiperidino)ethyl]-5-methoxy-2-methylindole hydrochloride]
[1]
  inhibition in vivo at 0.08 µM, 0.08 µmol/kg: 77%

## COc1ccc2c(c1)c(CCN1CCCCC1CC1CCCCC1)c(C)n2C(=O)c1ccccc1F (centres unmarked) [Example 9]
[1]
  inhibition in vivo at 0.162 µM, 0.162 µmol/kg: 72%
